For 23 compounds, IC50 results are on record in patent US20260015360A1 (MOMA Therapeutics, Inc., priority 2023, published 2026).

Where two headings read alike, the source gives them in different places. A value given as a limit tells only on which side of the number the result lay.

The target in experiment [1] is T1, biotinylated Avi-POLΘ[2-894] (Homo sapiens, UniProt O75417).
T1 construct: 1 nM biotinylated Avi-POLΘ[2-894]
In words: ATPase assay (ADP-Glo): POLΘ-mediated ATP hydrolysis. Conditions: read-out: Biochemical ATPase ADPGlo IC50.

A further experiment has as its system DLD1 BRCA2 (−/−) cells. The experiment in a line: DLD1 viability assay (CellTiter-Glo, 7 days), DLD1 BRCA2 (−/−). It counts as cell-based. Conditions: read-out: Viability IC50 (μM) DLD1 BRCA2 null. The procedure: (§1) The seeding densities are pre-determined from the growth curve kinetics performed to ensure log linear phase of cell growth for these 2 cell lines. These assay plates are then placed in the incubator at 37° C., 5% CO2, relative humidity>90% for a few hours before addition of test compounds. Compounds are dispensed using the Tecan HPD300 or Echo based on the plate map in the appropriate wells of the 384-well plates. […] After addition of the test compounds, the plates are incubated at 37° C., 5% CO2, relative humidity>90% for 7 days. CellTiter-Glo (Promega Cat. No. G7573), ATP detection reagent is prepared according to manufacturer's specifications. Cell assay plates are removed from incubator and bring to room temperature (RT) by letting them sit at bench top for at least 15 min. Using the MultiDrop liquid handler or a multichannel pipette, 35 μL/well of CTG is added and the plates are then placed shakes for 5 seconds, RT. These plates are then incubated for 30 minutes in the dark at RT before measuring luminescence using Spectramax/Enspire/Ensight/Envision/PheraSTAR.

Another experiment deals with DLD1 WT cells. The experiment in a line: DLD1 viability assay (CellTiter-Glo, 7 days), DLD1 WT. Format: cell-based. Conditions: Homo sapiens, DLD-1, 168 h. The procedure:
as §1

T1 sequence (O75417 2-894 limits assumed): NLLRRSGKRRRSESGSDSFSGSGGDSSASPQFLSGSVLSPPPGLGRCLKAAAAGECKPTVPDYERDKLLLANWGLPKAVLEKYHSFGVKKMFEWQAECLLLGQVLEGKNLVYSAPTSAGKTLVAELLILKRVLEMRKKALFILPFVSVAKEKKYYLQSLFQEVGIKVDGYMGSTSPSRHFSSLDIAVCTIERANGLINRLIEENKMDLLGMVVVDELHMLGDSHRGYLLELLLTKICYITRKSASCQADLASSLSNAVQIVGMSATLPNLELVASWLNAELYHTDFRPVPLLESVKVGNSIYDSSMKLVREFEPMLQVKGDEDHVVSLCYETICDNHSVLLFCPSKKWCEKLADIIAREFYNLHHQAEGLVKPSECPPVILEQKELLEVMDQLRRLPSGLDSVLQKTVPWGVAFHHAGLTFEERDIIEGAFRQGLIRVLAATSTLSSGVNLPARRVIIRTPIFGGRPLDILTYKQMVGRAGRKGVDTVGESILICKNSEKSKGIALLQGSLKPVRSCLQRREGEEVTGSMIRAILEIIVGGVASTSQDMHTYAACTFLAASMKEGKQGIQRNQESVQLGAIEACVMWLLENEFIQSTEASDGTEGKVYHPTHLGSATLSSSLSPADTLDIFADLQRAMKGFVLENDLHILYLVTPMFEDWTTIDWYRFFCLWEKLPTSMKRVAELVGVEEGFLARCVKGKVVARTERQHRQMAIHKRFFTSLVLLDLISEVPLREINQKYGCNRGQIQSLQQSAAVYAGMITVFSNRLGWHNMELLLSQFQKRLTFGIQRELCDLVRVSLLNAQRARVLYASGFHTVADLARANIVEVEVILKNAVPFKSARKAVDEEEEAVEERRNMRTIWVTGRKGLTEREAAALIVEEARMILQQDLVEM

As to `COc1cnc(Cl)cc1-c1cc(C)ncc1C(=O)Nc1nc2ncc(N3CCOCC3C(F)F)nc2s1` (stereo not shown) [Example 426, 2′-chloro-N-(6-(3-(difluoromethyl)morpholino)thiazolo[4,5-b]pyrazin-2-yl)-5′-methoxy-6-methyl-[4,4′-bipyridine]-3-carboxamide], the IC50 in experiment [1] lay within 15 to 50 nM.
`COc1ccccc1-c1cc(C)ncc1C(=O)Nc1nc2ncc(C3CCCCO3)cc2s1` (single isomer, unassigned) [Example 106, (S or R)-4-(2-methoxyphenyl)-6-methyl-N-(6-(tetrahydro-2H-pyran-2-yl)thiazolo[4,5-b]pyridin-2-yl)nicotinamide]: in experiment [1], the IC50 was in the range of 15 to 50 nM.
Still for that read-out and setting: for `COc1cnc(Cl)cc1-c1cc(C)ncc1C(=O)Nc1nc2ncc(N3C[C@@H](C)O[C@@H](C)C3)nc2s1` [Example 437, 2′-chloro-N-(6-((2S,6R)-2,6-dimethylmorpholino)thiazolo [4,5-b]pyrazin-2-yl)-5′-methoxy-6-methyl-[4,4′-bipyridine]-3-carboxamide] the value was 1 to 15 nM.
Take `COc1cnc(Cl)cc1-c1cc(C)ncc1C(=O)Nc1nc2ncc(N3CCC4(CCO4)CC3)nc2s1` [Example 482, N-(6-(1-oxa-7-azaspiro[3.5]nonan-7-yl)thiazolo[4,5-b]pyrazin-2-yl)-2′-chloro-5′-methoxy-6-methyl-[4,4′-bipyridine]-3-carboxamide]: the concentration for half-maximal inhibition (IC50) in the experiment with DLD1 BRCA2 (−/−) cells (Homo sapiens, DLD-1, 168 h) was 0.001 to 0.1 µM; with DLD1 WT cells, over 10 µM.
On to `COc1cnc(Cl)cc1-c1cc(C)ncc1C(=O)Nc1nc2ncc(N3CCO[C@H](C(F)(F)F)C3)nc2s1` [Example 430, (S)-2′-chloro-5′-methoxy-6-methyl-N-(6-(2-(trifluoromethyl)morpholino)thiazolo[4,5-b]pyrazin-2-yl)-[4,4′-bipyridine]-3-carboxamide], for which the IC50 was 0.001 to 0.1 µM in the experiment with DLD1 BRCA2 (−/−) cells (Homo sapiens, DLD-1, 168 h) and over 10 µM with DLD1 WT cells.
For `COc1cnc(Cl)cc1-c1cc(C)ncc1C(=O)Nc1nc2ncc(C3=CCC(OC)(C(F)F)CC3)nc2s1` (stereo not shown) [Example 388, 2′-chloro-N-(6-(4-(difluoromethyl)-4-methoxycyclohex-1-en-1-yl)thiazolo[4,5-b]pyrazin-2-yl)-5′-methoxy-6-methyl-[4,4′-bipyridine]-3-carboxamide], the concentration for half-maximal inhibition (IC50) in the experiment with DLD1 BRCA2 (−/−) cells (Homo sapiens, DLD-1, 168 h) was 0.001 to 0.1 µM; with DLD1 WT cells it was over 10 µM.
Regarding `COc1cnc(Cl)cc1-c1cc(C)ncc1C(=O)Nc1nc2ncc(N3CCO[C@@H](C(F)(F)F)C3)nc2s1` [Example 440, (R)-2′-chloro-5′-methoxy-6-methyl-N-(6-(2-(trifluoromethyl)morpholino)thiazolo[4,5-b]pyrazin-2-yl)-[4,4′-bipyridine]-3-carboxamide], the IC50 is 0.001 to 0.1 µM with DLD1 BRCA2 (−/−) cells (Homo sapiens, DLD-1, 168 h) and over 10 µM in the experiment with DLD1 WT cells.
In the case of `COc1cnc(Cl)cc1-c1cc(C)ncc1C(=O)Nc1nc2ncc(N3C[C@H](C)O[C@@H](C)C3)nc2s1` [Example 436, 2′-chloro-N-(6-((2S,6S)-2,6-dimethylmorpholino)thiazolo [4,5-b]pyrazin-2-yl)-5′-methoxy-6-methyl-[4,4′-bipyridine]-3-carboxamide], the IC50 with DLD1 BRCA2 (−/−) cells (Homo sapiens, DLD-1, 168 h) is 0.001 to 0.1 µM; in the experiment with DLD1 WT cells, over 10 µM.
For the compound `COc1cnc(Cl)cc1-c1cc(C)ncc1C(=O)Nc1nc2ncc(C3CCN(CC(F)(F)F)CC3)nc2s1` [Example 432, 2′-chloro-5′-methoxy-6-methyl-N-(6-(1-(2,2,2-trifluoroethyl)piperidin-4-yl)thiazolo[4,5-b]pyrazin-2-yl)-[4,4′-bipyridine]-3-carboxamide], the IC50 is 0.001 to 0.1 µM in the experiment with DLD1 BRCA2 (−/−) cells (Homo sapiens, DLD-1, 168 h) and over 10 µM with DLD1 WT cells.
With `COc1cnc(Cl)cc1-c1cc(C)ncc1C(=O)Nc1nc2ncc(N3CCC(C4COC4)CC3)nc2s1` [Example 464, 2′-chloro-5′-methoxy-6-methyl-N-(6-(4-(oxetan-3-yl)piperidin-1-yl)thiazolo[4,5-b]pyrazin-2-yl)-[4,4′-bipyridine]-3-carboxamide], the IC50 in the experiment on DLD1 BRCA2 (−/−) cells (Homo sapiens, DLD-1, 168 h) was 0.001 to 0.1 µM; with DLD1 WT cells it was over 10 µM.
As for `COc1cnc(Cl)cc1-c1cc(C)ncc1C(=O)Nc1nc2ncc(C3CCC(C)(C#N)CC3)nc2s1` (stereo not shown) [Example 410, 2′-chloro-N-(6-(4-cyano-4-methylcyclohexyl)thiazolo[4,5-b]pyrazin-2-yl)-5′-methoxy-6-methyl-[4,4′-bipyridine]-3-carboxamide], the IC50 with DLD1 BRCA2 (−/−) cells (Homo sapiens, DLD-1, 168 h) was 0.001 to 0.1 µM; in the experiment on DLD1 WT cells, over 10 µM.
On to `COc1cnc(Cl)cc1-c1cc(C)ncc1C(=O)Nc1nc2ncc(C3CCOC(C)(C)C3)nc2s1` (stereo not shown) [Example 389, 2′-chloro-N-(6-(2,2-dimethyltetrahydro-2H-pyran-4-yl)thiazolo[4,5-b]pyrazin-2-yl)-5′-methoxy-6-methyl-[4,4′-bipyridine]-3-carboxamide], for which the concentration for half-maximal inhibition (IC50) was 0.001 to 0.1 µM in the experiment on DLD1 BRCA2 (−/−) cells (Homo sapiens, DLD-1, 168 h) and over 10 µM in the experiment on DLD1 WT cells.
On to `COc1cnc(Cl)cc1-c1cc(C)ncc1C(=O)Nc1nc2ncc(N3CCC(O)C(F)(F)C3)nc2s1` (single isomer, unassigned) [Example 457, (S or R)-2′-chloro-N-(6-(3,3-difluoro-4-hydroxypiperidin-1-yl)thiazolo[4,5-b]pyrazin-2-yl)-5′-methoxy-6-methyl-[4,4′-bipyridine]-3-carboxamide], for which the values for the IC50 in the experiment with DLD1 BRCA2 (−/−) cells and in the experiment with DLD1 WT cells were 0.1 to 0.25 µM and over 10 µM, respectively.
In the case of `COc1cnc(Cl)cc1-c1cc(C)ncc1C(=O)Nc1nc2ncc([C@H]3CCN(CC(F)(F)F)C3)nc2s1` (single isomer, unassigned) [Example 364, (S or R)-2′-chloro-5′-methoxy-6-methyl-N-(6-(1-(2,2,2-trifluoroethyl)pyrrolidin-3-yl)thiazolo[4,5-b]pyrazin-2-yl)-[4,4′-bipyridine]-3-carboxamide], the IC50 with DLD1 BRCA2 (−/−) cells (Homo sapiens, DLD-1, 168 h) was 0.1 to 0.25 µM; in the experiment with DLD1 WT cells, over 10 µM.
In the case of `COc1cnc(Cl)cc1-c1cc(C)ncc1C(=O)Nc1nc2ncc([C@H]3CCOC(C)(C)C3)nc2s1` (single isomer, unassigned) [Example 379, (S or R)-2′-chloro-N-(6-(2,2-dimethyltetrahydro-2H-pyran-4-yl)thiazolo[4,5-b]pyrazin-2-yl)-5′-methoxy-6-methyl-[4,4′-bipyridine]-3-carboxamide], the 50% inhibitory concentration (IC50) in the experiment with DLD1 BRCA2 (−/−) cells (Homo sapiens, DLD-1, 168 h) is 0.001 to 0.1 µM; with DLD1 WT cells, over 10 µM.
The matching figures for `COc1cnc(Cl)cc1-c1cc(C)ncc1C(=O)Nc1nc2ncc(N3CCC(OC(F)(F)F)CC3)nc2s1` [Example 489, 2′-chloro-5′-methoxy-6-methyl-N-(6-(4-(trifluoromethoxy)piperidin-1-yl)thiazolo[4,5-b]pyrazin-2-yl)-[4,4′-bipyridine]-3-carboxamide]: 0.001 to 0.1 µM and over 10 µM.
With `COc1cnc(Cl)cc1-c1cc(C)ncc1C(=O)Nc1nc2ncc(C3=CCC(O)(C(F)(F)F)CC3)nc2s1` (single isomer, unassigned) [Example 413, 2′-chloro-N-(6-(4-hydroxy-4-(trifluoromethyl)cyclohex-1-en-1-yl)thiazolo[4,5-b]pyrazin-2-yl)-5′-methoxy-6-methyl-[4,4′-bipyridine]-3-carboxamide], the IC50 was 0.001 to 0.1 µM with DLD1 BRCA2 (−/−) cells (Homo sapiens, DLD-1, 168 h) and over 10 µM in the experiment on DLD1 WT cells.
For `COc1ccc(C#N)cc1-c1cc(C)ncc1C(=O)Nc1nc2ncc(C3=CCC(CO)CC3)nc2s1` (stereo not shown) [Example 421, 4-(5-cyano-2-methoxyphenyl)-N-(6-(4-(hydroxymethyl)cyclohex-1-en-1-yl)thiazolo[4,5-b]pyrazin-2-yl)-6-methylnicotinamide], the IC50 is 0.001 to 0.1 µM with DLD1 BRCA2 (−/−) cells (Homo sapiens, DLD-1, 168 h) and over 10 µM in the experiment on DLD1 WT cells.
The matching figures for `COc1cnc(Cl)cc1-c1cc(C)ncc1C(=O)Nc1nc2ncc([C@H]3CCO[C@@H](C)C3)nc2s1` (single isomer, unassigned) [Example 434A, 2′-chloro-5′-methoxy-6-methyl-N-(6-((2S or R,4S or R)-2-methyltetrahydro-2H-pyran-4-yl)thiazolo[4,5-b]pyrazin-2-yl)-[4,4′-bipyridine]-3-carboxamide]: 0.001 to 0.1 µM and over 10 µM.
In the same order, the values of `COc1cnc(Cl)cc1-c1cc(C)ncc1C(=O)Nc1nc2ncc(N3CCOC(C(F)F)C3)nc2s1` (stereo not shown) [Example 429, 2′-chloro-N-(6-(2-(difluoromethyl)morpholino)thiazolo[4,5-b]pyrazin-2-yl)-5′-methoxy-6-methyl-[4,4′-bipyridine]-3-carboxamide] are 0.001 to 0.1 µM and over 10 µM.
Consider `COc1cnc(Cl)cc1-c1cc(C)ncc1C(=O)Nc1nc2ncc(C3=CCOC(C)C3)nc2s1` (stereo not shown) [Example 443, 2′-chloro-5′-methoxy-6-methyl-N-(6-(2-methyl-3,6-dihydro-2H-pyran-4-yl)thiazolo[4,5-b]pyrazin-2-yl)-[4,4′-bipyridine]-3-carboxamide], for which the 50% inhibitory concentration (IC50) in the experiment on DLD1 BRCA2 (−/−) cells (Homo sapiens, DLD-1, 168 h) is 0.001 to 0.1 µM; with DLD1 WT cells, over 10 µM.
As to `COc1cnc(Cl)cc1-c1cc(C)ncc1C(=O)Nc1nc2ncc(N3CCC(C(F)F)CC3)nc2s1` [Example 486, 2′-chloro-N-(6-(4-(difluoromethyl)piperidin-1-yl)thiazolo[4,5-b]pyrazin-2-yl)-5′-methoxy-6-methyl-[4,4′-bipyridine]-3-carboxamide], the IC50 in the experiment on DLD1 BRCA2 (−/−) cells (Homo sapiens, DLD-1, 168 h) is 0.001 to 0.1 µM; in the experiment with DLD1 WT cells, over 10 µM.
For `COc1cnc(Cl)cc1-c1cc(C)ncc1C(=O)Nc1nc2ncc(N3CCCCC3)nc2s1` [Example 491, 2′-chloro-5′-methoxy-6-methyl-N-(6-(piperidin-1-yl)thiazolo[4,5-b]pyrazin-2-yl)-[4,4′-bipyridine]-3-carboxamide], the IC50 is 0.001 to 0.1 µM in the experiment with DLD1 BRCA2 (−/−) cells (Homo sapiens, DLD-1, 168 h) and over 10 µM with DLD1 WT cells.
